Test results from patent US10266549B2, “ULK1 inhibitors and methods using same” (SALK INSTITUTE FOR BIOLOGICAL STUDIES, priority 2014, dated 2019).

These compounds were tested against ULK1 (Homo sapiens (Human), UniProt O75385) (assay: ULK1 inhibition assay (Table 1)). Settings: * = tested as a mixture of regioisomers.
Type: biochemical

Chain of ULK1 (O75385 whole entry, species assumed): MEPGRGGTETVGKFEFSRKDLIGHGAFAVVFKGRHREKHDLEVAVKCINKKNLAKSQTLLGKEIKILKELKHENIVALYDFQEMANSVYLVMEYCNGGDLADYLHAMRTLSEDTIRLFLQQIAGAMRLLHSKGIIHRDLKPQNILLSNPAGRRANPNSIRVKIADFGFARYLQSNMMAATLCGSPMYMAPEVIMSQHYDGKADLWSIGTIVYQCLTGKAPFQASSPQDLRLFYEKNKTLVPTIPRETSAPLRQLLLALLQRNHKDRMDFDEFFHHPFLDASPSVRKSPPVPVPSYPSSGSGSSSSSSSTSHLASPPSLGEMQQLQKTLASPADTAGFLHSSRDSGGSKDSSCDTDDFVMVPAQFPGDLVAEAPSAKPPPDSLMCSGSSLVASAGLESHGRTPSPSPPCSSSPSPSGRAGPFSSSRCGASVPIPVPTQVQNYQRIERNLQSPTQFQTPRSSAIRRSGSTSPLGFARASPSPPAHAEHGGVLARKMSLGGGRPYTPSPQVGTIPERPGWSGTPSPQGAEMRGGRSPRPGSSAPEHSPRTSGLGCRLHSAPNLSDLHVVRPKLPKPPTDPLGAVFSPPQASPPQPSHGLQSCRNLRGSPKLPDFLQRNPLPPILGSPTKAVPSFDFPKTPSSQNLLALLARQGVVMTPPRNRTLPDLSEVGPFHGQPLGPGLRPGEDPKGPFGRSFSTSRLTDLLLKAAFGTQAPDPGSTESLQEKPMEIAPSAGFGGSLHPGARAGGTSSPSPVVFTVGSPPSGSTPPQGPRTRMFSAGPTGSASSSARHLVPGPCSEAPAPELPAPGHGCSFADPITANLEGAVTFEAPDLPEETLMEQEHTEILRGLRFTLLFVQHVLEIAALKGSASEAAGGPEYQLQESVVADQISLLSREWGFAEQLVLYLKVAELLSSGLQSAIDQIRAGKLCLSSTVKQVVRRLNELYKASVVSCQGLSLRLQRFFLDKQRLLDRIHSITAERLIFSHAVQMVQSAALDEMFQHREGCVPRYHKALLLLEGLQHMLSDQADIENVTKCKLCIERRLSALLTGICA

SMILES | IC50 [nM]
CNC(=O)c1ccccc1Oc1nc(Nc2ccc(OC)cc2)ncc1C(F)(F)F [105a, 2-((2-((4-methoxyphenyl)amino)-5-(trifluoromethyl)pyrimidin-4-yl)oxy)-N-methylbenzamide] | > 2000
COc1ccc(Nc2ncc(C(F)(F)F)c(O)n2)cc1 [105b, 2-((4-methoxyphenyl)amino)-5-(trifluoromethyl)pyrimidin-4-ol] | > 2000
CNC(=O)c1ccccc1Oc1nc(Nc2ccc(Cl)c(Cl)c2)ncc1C(F)(F)F [108a, 2-((2-((3,4-dichlorophenyl)amino)-5-(trifluoromethyl)pyrimidin-4-yl)oxy)-N-methylbenzamide] | > 2000
Oc1nc(Nc2ccc(Cl)c(Cl)c2)ncc1C(F)(F)F [108b, 2-((3,4-dichlorophenyl)amino)-5-(trifluoromethyl)pyrimidin-4-ol] | > 2000
CNC(=O)c1ccccc1Oc1nc(Nc2cc(OC)ccc2OC)ncc1C(F)(F)F [109a, 2-((2-((2,5-dimethoxyphenyl)amino)-5-(trifluoromethyl)pyrimidin-4-yl)oxy)-N-methylbenzamide] | > 2000
COc1ccc(OC)c(Nc2ncc(C(F)(F)F)c(O)n2)c1 [109b, 2-((2,5-dimethoxyphenyl)amino)-5-(trifluoromethyl)pyrimidin-4-ol] | > 2000
CNC(=O)c1ccccc1Oc1nc(Nc2cccc(OC)c2OC)ncc1C(F)(F)F [115a, 2-((2-((2,3-dimethoxyphenyl)amino)-5-(trifluoromethyl)pyrimidin-4-yl)oxy)-N-methylbenzamide] | > 2000
COc1cccc(Nc2ncc(C(F)(F)F)c(O)n2)c1OC [115b, 2-((2,3-dimethoxyphenyl)amino)-5-(trifluoromethyl)pyrimidin-4-ol] | > 2000
CNC(=O)c1ccccc1Oc1nc(Nc2ccccc2SC)ncc1C(F)(F)F [116a, N-methyl-2-((2-((2-(methylthio)phenyl)amino)-5-(trifluoromethyl)pyrimidin-4-yl)oxy)benzamide] | > 2000
CSc1ccccc1Nc1ncc(C(F)(F)F)c(Nc2ccccc2SC)n1 [116b, N^2,N^4-bis(2-(methylthio)phenyl)-5-(trifluoromethyl)pyrimidine-2,4-diamine] | > 2000
O=C1CCc2cc(Nc3ncc(C(F)(F)F)c(Nc4ccccc4N4CCOCC4)n3)ccc2N1 [118a, 6-((4-((2-morpholinophenyl)amino)-5-(trifluoromethyl)pyrimidin-2-yl)amino)-3,4-dihydroquinolin-2(1H)-one] | < 200
O=C1CCc2cc(Nc3nc(Nc4ccccc4N4CCOCC4)ncc3C(F)(F)F)ccc2N1 [118b, 6-((2-((2-morpholinophenyl)amino)-5-(trifluoromethyl)pyrimidin-4-yl)amino)-3,4-dihydroquinolin-2(1H)-one] | > 2000
Oc1ncc(C(F)(F)F)c(Nc2ccccc2N2CCOCC2)n1 [118c, 4-((2-morpholinophenyl)amino)-5-(trifluoromethyl)pyrimidin-2-ol] | > 2000
O=C1CCc2cc(Nc3ncc(C(F)(F)F)c(Nc4ccccc4OC(F)F)n3)ccc2N1 [120a, 6-((4-((2-(difluoromethoxy)phenyl)amino)-5-(trifluoromethyl)pyrimidin-2-yl)amino)-3,4-dihydroquinolin-2(1H)-one] | < 200
FC(F)Oc1ccccc1Nc1ncc(C(F)(F)F)c(Nc2ccccc2OC(F)F)n1 [120b, N^2,N^4-bis(2-(difluoromethoxy)phenyl)-5-(trifluoromethyl)pyrimidine-2,4-diamine] | 200 to 2000
O=C1CCc2cc(Nc3ncc(C(F)(F)F)c(Nc4ccc5c(c4)CCC(=O)N5)n3)ccc2N1 [120c, 6,6′-((5-(trifluoromethyl)pyrimidine-2,4-diyl)bis(azanediyl))bis(3,4-dihydroquinolin-2(1H)-one)] | < 200
COc1cc(N2CCOCC2)ccc1Nc1nc(Nc2ccc3c(c2)CCC(=O)N3)ncc1C(F)(F)F [123a, 6-((4-((2-methoxy-4-morpholinophenyl)amino)-5-(trifluoromethyl)pyrimidin-2-yl)amino)-3,4-dihydroquinolin-2(1H)-one] | < 200
